# Measured values published in patent US20250032581A1, “COMPOSITIONS AND ARTICLES COMPRISING AN ADNF POLYPEPTIDE” (RAMOT AT TEL-AVIV UNIVERSITY LTD., priority 2021, published 2025).
# Experiments:
# [1] = system: Tyr mice; test: Fecal microbiome real-time PCR; format: in vivo, mouse; details: WT mice
# Method: Microbiome—Fecal samples were collected from 12.2±0.19-week-old mice. Samples were prepared and analyzed as previously described (57). Microbiome data was analyzed after applying the logarithmic transformation.
# [2] = system: differentiated N1E-115 cells expressing RFP-tagged EB3; test: Live imaging of EB3 comet-like structures (MT dynamics); format: cell-based, mouse
# Text: Plasmid construction—Protein expressing plasmids were constructed as previously described based on pEGFP-C1 backbone and express full-length ADNP or the following truncated ADNP proteins: p.Glu830synfs*83, p.Lys408Valfs*31, p.Ser404* (as before). Inserts of cDNA carrying unique mutations were obtained from mRNA extracted from patient-derived lymphoblastoid cell lines and cDNA with full-length human ADNP was obtained from a control lymphoblastoid cell line with no mutation. Protein expressions were verified by fluorescent imaging and immunoblotting analysis as before.
# Cell culture—Mouse neuroblastoma NIE-115 cells were maintained in Dulbecco's modified Eagle's medium, 10% fetal bovine serum, 2 mM glutamine and 100 U ml-1 penicillin, 100 mg ml-1 streptomycin (Biological Industries, Beit Haemek, Israel). The cells were incubated in 9 5% air/5% CO2 in a humidified incubator at 37° C.
# Cell differentiation and co-transfection of overexpression plasmids—Cultured NIE-115 cells were plated on 35 mm dishes (81156, 60 p-Dish, Ibidi, Martinsried, Germany) at a concentration of 1.25×10^4 cells per dish and then were differentiated with reduced fetal bovine serum (2%) and DMSO (1.25%) containing medium for 5 days before transfection. 48 hrs before experiments N1E-115 cells were co-transfected with 1 μg EB3-RFP or mCherry-Tau (3R) plasmid with or without 2 μg of plasmids, coding to GFP conjugated to full-length human ADNP, or ADNP carried mutations. 1:3 ratios between total amount of transfected DNA and transfection reagent were used according to manufacture guidance (Lipofectamine2000, Thermo Fisher Scientific, Waltham, MA, USA) in all subsequent experiments.
# Live Imaging—48 hrs after transfection, differentiated NIE-115 cells (expressing EB3-RFP with or without GFP-conjugated to full-length ADNP or mutated ADNP) were incubated at 37° C. with a 5% CO2/95% air mixture in a thermostatic chamber placed on the stage of a Leica TCS SP5 confocal microscope (objective 100× (PL Apo) oil immersion, NA 1.4). Time-lapse images were automatically captured 3 sec during 1 min, using the Leica LAS AF software. After imaging all samples were also treated with NAP (SEQ ID NO: 2) or SKIP (SEQ ID NO: 21) in final concentrations of 10^−12M, and after 4 hrs time-lapse imaging was done again under the same conditions. Data was collected and analyzed by Imaris software.
# To evaluate the effect of ADNP truncated proteins on MT dynamics time-lapse imaging of EB3 comet-like structures formed by RFP-tagged EB3 proteins that bind to MT plus-ends was performed. Two parameters of EB3 activity were used to assess MT dynamics—track length and track speed of EB3 comets, which reflect the length of freshly growing MTs and the speed of MT assembly, respectively. Furthermore, the present inventors aimed to determine whether NAP ([…] for 4 hrs) could prevent the deleterious effect of ADNP mutations.
# [3] = system: Tau, tubulin; test: Polymerized vs. soluble tubulin assay; format: cell-based, mouse; details: zinc 400 μM, 4 h, peptide 10^−12M
# Method: Polymerized vs. soluble tubulin assay—To quantify tubulin polymerization and Tau-MT association, a simple assay was performed as previously described. The cells grown to confluence in six-well plates were washed with MT buffer (80 mM PIPES pH 6.8, 1 mM MgCl^2, 2 mM EGTA, 5% Glycerol) and lysed at room temperature for 5 min through centrifugation (300 g), with 150 μl of MT buffer with 0.5% Triton X-100 to extract soluble (cytosolic) tubulin (S). The pelleted cells were rinsed once again with an equal volume of modified RIPA lysis buffer (50 mM Tris-HCL pH 7.4, 150 mM NaCl, 2 mM EGTA, 1% Triton X-100, 0. 1% SDS, 0.1% sodium Deoxycholate) to collect the polymerized (cytoskeletal) tubulin (P). The cytosolic and cytoskeletal fractions were each mixed with sample buffer and heated at 95° C. for 5 min. An equal volume of each fraction was analyzed by immunoblotting with Tau, tubulin and actin antibodies, and the results following ECL development were quantified by densitometry (GelQuant.NET software provided by biochemlabsolutions(dot)com).
# It is known that in the presence of extracellular zinc NAP protects MT against degradation by promoting Tau binding to the MT shaft. Polymerized vs. soluble tubulin assay was effected to compare protective activities of NAP and SKIP against MT degradation and Tau-MT dissociation (FIGS. 11F-G). After treatments with zinc (400 μM, 4 h) with and without NAP or SKIP (10^−12M, 4 h) the cellular-tubulin pool was separated into polymerized and soluble tubulin fractions. The amount of Tau, tubulin, and actin was identified by immunoblotting (FIG. 11F), followed by densitometric quantification (FIG. 11G).
# [4] = system: mice with the ASD-linked InsG3680 mutation (SHANK3); test: Open field behavior in the SHANK3 mouse model; format: in vivo; details: intranasal NAP once daily, five days a week for a month
# Method: To this end, mice with the ASD-linked InsG3680 mutation were used. Two behavioral assessments were performed on make mice: • 1) Open field behavior attesting to anxiety and depression (Open field behavioral assessment technology was previously described, e.g.); and • 2) Social recognition behavior, related to autistic traits (the social recognition test was previously described, e.g..
# This surprising finding is of importance as there is a psychiatric illness and regression in individuals with Phelan-McDermid syndrome.
# [5] = system: Shank3-Adnp-actin interactions; test: Actin co-immunoprecipitations from mouse brain extracts
# Text: De novo heterozygous mutations in ADNP reproduced the autistic ADNP syndrome. ADNP mutations impair microtubule (MT) function, essential for synaptic activity. The ADNP MT-associating fragment NAPVSIPQ (NAP) (SEQ ID NO 2) contains an MT end-binding protein interacting domain, SxIP (mimicking the active-peptide, SKIP, SEQ ID NO 21). The inventors hypothesized that not all ADNP mutations are similarly deleterious and that the NAPV portion of NAPVSIPQ is biologically active. Using the eukaryotic linear motif (ELM) resource, the inventors identified a Src homology 3 (SH3) domain-ligand association site in NAP responsible for controlling signaling pathways regulating the cytoskeleton, namely NAPVSIP (SEQ ID NO: 2). Altogether, the inventors mapped multiple SH3-binding sites in ADNP. […] Site-directed-mutagenesis, abolishing the p.Lys408Valfs*31 SH3-binding motif, produced MT toxicity. […] Lastly, SH3 and multiple ankyrin repeat domains protein 3 (SHANK3), a major autism gene product, interact with the cytoskeleton through an actin-binding motif to modify behavior.
smiles,measurement,setting,value
"CC[C@H](C)[C@H](NC(=O)[C@H](CO)NC(=O)[C@@H](NC(=O)[C@@H]1CCCN1C(=O)[C@H](C)NC(=O)[C@@H](N)CC(N)=O)C(C)C)C(=O)N1CCC[C@H]1C(=O)N[C@@H](CCC(N)=O)C(=O)O [NAP, NAPVSIPQ]","bacterial loads (EubV3, BIF, Lacto, Entero)",[1],no effect on WT mice
same,EB3 track length and speed,"[2]; 10^−12M, 4 hrs, vs. non-treated control, no significant differences between NAP and SKIP",increased EB3 track length and speed
same,EB3 comet speed and track length,"[2]; cells expressing ADNP p.Glu830synfs*83, NAP 4 hrs",significantly augmented
same,EB3 comet speed and track length,"[2]; cells expressing ADNP p.Ser404*, NAP 4 hrs",significantly augmented
same,EB3 comet track length and speed,"[2]; cells expressing full-length ADNP, NAP 4 hrs",did not further influence the effect of full-length ADNP
same,protection against Tau dissociation from MTs (soluble Tau ratio),[3],only NAP exhibited protection against Tau dissociation from MTs
same,protection of polymerized tubulin against zinc,[3],protected against zinc-induced decay
same,open field: cumulative duration in the center,[4],significantly increased by NAP treatment
same,Shank3-Adnp-actin interactions,[5],NAP-mediated normalization of Shank3-Adnp-actin interactions
